The test system of the assay is Legionella pneumophila. In kind it is cell-based. The following applies: after THPS 15 mg/L, 60 min; 0.1% pyruvate and/or 1% glutamic acid in BCYE.

For the compound `N[C@@H](CCC(=O)O)C(=O)O` [glutamic acid], the “ratio of number of culturable Legionella on supplemented medium to standard medium (BCYE)” value came to 0.2.

For `CC(=O)C(=O)O` [pyruvate], the “ratio of number of culturable Legionella on supplemented medium to standard medium (BCYE)” value amounted to 45.

(Values after US9181575B2 (priority 2008, dated 2015).)
